Results taken from patent US20190031618A1, “BENZIMIDAZOLE DERIVATIVES USEFUL AS CB-1 INVERSE AGONISTS” (Janssen Pharmaceutica NV, priority 2015, published 2019).

Legend:
[1] = target: Human CB1R (Cannabinoid receptor 1) (Homo sapiens, UniProt P21554); assay: CB-1 in vitro cAMP (HTRF) assay; format: cell-based; conditions: HEK cells, cAMP HTRF, 250 nM forskolin; mean where tested more than once; read-out: CB1 HEK_cAMP EC50
In short: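 Intracellular cAMP from HTRF ratio (d2-cAMP vs Eu-cryptate anti-cAMP), converted to nM via per-plate standards, in stable human CB1R HEK-293 cells.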

[2] = test system: DIO mice; assay: Five-Day Study in DIO Mice: food intake, body weight, plasma insulin, fed blood glucose; format: in vivo; conditions: for Plasma Insulin: 30 mg/kg, day 5, two hours after dosing, (Std Err)
Excerpt: Male 14-20-week old diet-induced obese mice are ordered from Taconic. Mice were started on a 60% fat diet (D12492, Research Diets, New Brunswick, N.J.) at 6 weeks of age. Mice are single-housed.
Male Sprague Dawley rats are ordered from Charles River (225-250 gm upon arrival). They are fed standard chow diet (Purina 5001) and housed 2 per cage. Male C57bl/6j mice are ordered from Charles River at 22-25 g and housed 3 per cage. They are fed standard chow (Purina 5001). All animals are housed in a temperature-controlled room with 12-hour light/dark cycle. Animals are given food and water ad libitum, except as noted.
Test compounds are administered by oral gavage (5 ml kg^−1 or 10 ml kg^−1).

[3] = 30 mg/kg daily oral, Day 1, (Std Err)
[4] = 30 mg/kg daily oral, Day 2, (Std Err)
[5] = 30 mg/kg daily oral, Day 3, (Std Err)
[6] = 30 mg/kg daily oral, Day 4, (Std Err)
[7] = 30 mg/kg group, Day 0, (Std Err)

Human CB1R (Cannabinoid receptor 1), sequence (P21554 whole entry): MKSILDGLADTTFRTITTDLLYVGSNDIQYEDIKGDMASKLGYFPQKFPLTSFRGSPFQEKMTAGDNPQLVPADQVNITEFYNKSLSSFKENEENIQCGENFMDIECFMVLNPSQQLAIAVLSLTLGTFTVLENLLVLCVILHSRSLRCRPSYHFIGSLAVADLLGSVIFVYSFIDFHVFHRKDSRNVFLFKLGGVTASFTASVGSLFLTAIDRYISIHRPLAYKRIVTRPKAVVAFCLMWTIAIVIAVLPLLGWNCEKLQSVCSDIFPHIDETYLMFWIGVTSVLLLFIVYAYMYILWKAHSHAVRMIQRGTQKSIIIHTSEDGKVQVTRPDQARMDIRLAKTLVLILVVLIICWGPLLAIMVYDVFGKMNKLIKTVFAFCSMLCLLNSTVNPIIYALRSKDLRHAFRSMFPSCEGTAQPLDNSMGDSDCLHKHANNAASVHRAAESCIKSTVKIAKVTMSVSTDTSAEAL

O=C(O)c1cc(F)cc(CN2CCC(n3c(C4CC4)nc4ccc(C(c5ccc(Cl)cc5)c5ccc(Cl)cc5)cc43)CC2)c1 [Example 89]
EC50 [1]: 7.2 nM

O=C(O)c1ccc(F)c(CN2CCC(n3c(C4CC4)nc4ccc(C(c5ccc(Cl)cc5)c5ccc(Cl)cc5)cc43)CC2)c1 [Example 92]
EC50 [1]: 15.9 nM

O=C(O)c1ccc(CN2CCC(n3c(C4CC4)nc4ccc(C(c5ccc(Cl)cc5)c5ccc(Cl)cc5)cc43)CC2)nc1 [Example 124]
EC50 [1]: 34.9 nM

O=C(O)c1cccc(CN2CCC(n3c(C4CC4)nc4ccc(C(c5ccc(Cl)cc5)c5ccc(Cl)cc5)cc43)CC2)n1 [Example 125]
EC50 [1]: 17.7 nM

O=C(O)c1ccc(CN2CCC(n3c(C4CC4)nc4ccc(C(c5ccc(Cl)cc5)c5ccc(Cl)cc5)cc43)CC2)o1 [Example 129]
EC50 [1]: 19.8 nM

O=C(O)c1cccc(CN2CCC(n3c(C4CC4)nc4ccc(C(c5ccc(Cl)cc5)c5ccc(Cl)cc5)cc43)CC2)c1 [Example 148]
EC50 [1]: 9.6 nM

O=C(O)c1csc(S(=O)(=O)N2CCC(n3c(C4CC4)nc4ccc(C(c5ccc(Cl)cc5)c5ccc(Cl)cc5)cc43)CC2)c1 [Example 221]
EC50 [1]: 8.5 nM

O=C(O)c1ccc(S(=O)(=O)N2CCC(n3c(C4CC4)nc4ccc(C(c5ccc(Cl)cc5)c5ccc(Cl)cc5)cc43)CC2)o1 [Example 232]
EC50 [1]: 17.6 nM

O=C(O)c1cccc(S(=O)(=O)N2CCC(n3c(C4CC4)nc4ccc(C(c5ccc(Cl)cc5)c5ccc(Cl)cc5)cc43)CC2)c1 [Example 242]
EC50 [1]: 18 nM

O=S(=O)(c1cccc(O)c1)N1CCC(n2c(C3CC3)nc3ccc(C(c4ccc(Cl)cc4)c4ccc(Cl)cc4)cc32)CC1 [Example 259]
EC50 [1]: 3.7 nM

O=C(O)c1ccc(S(=O)(=O)N2CCC(n3c(C4CC4)nc4ccc(C(c5ccc(Cl)cc5)c5ccc(Cl)cc5)cc43)CC2)cc1 [Example 276]
EC50 [1]: 9.3 nM

CCc1nc2ccc(C(c3ccc(Cl)cc3)c3ccc(Cl)cc3)cc2n1CC1CCN(S(=O)(=O)C(F)(F)F)CC1 [Example 315]
EC50 [1]: 5.3 nM

O=S(=O)(N1CCC(Cn2c(C3CC3)nc3ccc(C(c4ccc(Cl)cc4)c4ccc(Cl)cc4)cc32)CC1)C(F)(F)F [Example 316]
EC50 [1]: 2.8 nM

O=S(=O)(N1CCC(n2c(C3CCC3)nc3ccc(C(c4ccc(Cl)cc4)c4ccc(Cl)cc4)cc32)CC1)C(F)(F)F [Example 318]
EC50 [1]: 6.9 nM

COc1ccc(C(c2ccc(OC)cc2)c2ccc3nc(C4CCC4)n(C4CCN(S(=O)(=O)C(F)(F)F)CC4)c3c2)cc1 [Example 320]
EC50 [1]: 69.3 nM

CCc1nc2ccc(C(c3ccc(Cl)cc3)c3ccc(Cl)cc3)cc2n1C1CCN(S(=O)(=O)C(F)(F)F)CC1 [Example 328]
EC50 [1]: 8.4 nM | Mean Body Weight [2, 3]: 41.2 (0.7) Grams | Mean Daily Food Intake [2, 3]: 0.5 (0.1) Grams | Mean Body Weight [2, 4]: 39.6 (0.6) Grams | Mean Daily Food Intake [2, 4]: 0.5 (0.1) Grams | Mean Body Weight [2, 5]: 38.6 (0.6) Grams | Mean Daily Food Intake [2, 5]: 0.7 (0.1) Grams | Fed Blood Glucose [2, 6]: 154 (7) mg/dL | Mean Body Weight [2, 6]: 38.2 (0.7) Grams | Mean Daily Food Intake [2, 6]: 1.2 (0.1) Grams | Fed Blood Glucose [2, 7]: 183 (9) mg/dL | Mean Body Weight [2, 7]: 43.6 (0.7) Grams | Plasma Insulin [2]: 1.31 (0.13) ng/mL

O=S(=O)(N1CCC(n2c(C3CC3)nc3ccc(C(c4ccc(Cl)cc4)c4ccc(Cl)cc4)cc32)CC1)C(F)(F)F [Example 335]
EC50 [1]: 5.6 nM | Mean Body Weight [2, 3]: 42.8 (0.8) Grams | Mean Daily Food Intake [2, 3]: 0.4 (0.1) Grams | Mean Body Weight [2, 4]: 41.4 (0.7) Grams | Mean Daily Food Intake [2, 4]: 0.5 (0.1) Grams | Mean Body Weight [2, 5]: 40.3 (0.6) Grams | Mean Daily Food Intake [2, 5]: 0.5 (0.1) Grams | Fed Blood Glucose [2, 6]: 160 (6) mg/dL | Mean Body Weight [2, 6]: 39.4 (0.6) Grams | Mean Daily Food Intake [2, 6]: 1.1 (0.1) Grams | Fed Blood Glucose [2, 7]: 187 (9) mg/dL | Mean Body Weight [2, 7]: 45.4 (0.7) Grams | Plasma Insulin [2]: 2.72 (0.61) ng/mL

CCc1nc2ccc(C(c3ccc(Cl)cc3)c3nccs3)cc2n1C1CCN(S(=O)(=O)C(F)(F)F)CC1 (stereo not drawn) [Example 400]
EC50 [1]: 6 nM
